# Measured values published in ChEMBL document CHEMBL1134708, “Synthesis of analogues of the O-beta-D-ribofuranosyl nucleoside moiety of liposidomycins. Part 1: contribution of the amino group and the uracil moiety upon the inhibition of MraY” (Bioorg Med Chem Lett, 2001).
# Target: T1, Phospho-N-acetylmuramoyl-pentapeptide-transferase (Escherichia coli K-12, UniProt P0A6W3)
# T1 sequence (P0A6W3 whole entry): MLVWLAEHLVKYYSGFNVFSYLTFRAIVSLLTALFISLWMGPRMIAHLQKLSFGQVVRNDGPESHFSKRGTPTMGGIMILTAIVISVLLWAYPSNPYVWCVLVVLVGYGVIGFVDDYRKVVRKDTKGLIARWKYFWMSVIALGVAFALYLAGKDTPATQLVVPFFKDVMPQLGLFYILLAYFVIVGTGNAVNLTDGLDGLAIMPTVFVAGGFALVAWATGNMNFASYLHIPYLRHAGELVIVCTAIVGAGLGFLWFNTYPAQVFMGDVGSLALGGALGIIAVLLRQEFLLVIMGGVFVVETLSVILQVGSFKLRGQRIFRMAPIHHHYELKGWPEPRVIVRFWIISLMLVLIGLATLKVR
# Experiment: Inhibition of Translocase (mraY) at >1000 uM (No activity); call rule not given here
row,IC50,Compound
1,Not Active,"Cn1c(=O)ccn([C@@H]2O[C@H](CO[C@@H]3O[C@H](CN)C(O)[C@H]3O)C(O)[C@H]2O)c1=O (single isomer, unassigned)"
2,Not Active,"NC[C@H]1O[C@@H](OC[C@H]2O[C@@H](N3CCC(=O)NC3=O)[C@H](O)C2O)[C@H](O)C1O (single isomer, unassigned)"

# Target: T1, Phospho-N-acetylmuramoyl-pentapeptide-transferase
# Experiment: Inhibition of Escherichia coli Translocase (mraY)
row,Compound,IC50 [µM]
1,N=C(N)NC[C@H]1O[C@@H](OC[C@H]2O[C@@H](n3ccc(=O)[nH]c3=O)[C@H](O)[C@@H]2O)[C@H](O)[C@@H]1O,25
2,NC[C@H]1O[C@@H](OC(CO)[C@H]2O[C@@H](n3ccc(=O)[nH]c3=O)[C@H](O)[C@@H]2O)[C@H](O)[C@@H]1O (stereo partly specified),5
3,CC(=O)NC[C@H]1O[C@@H](OC[C@H]2O[C@@H](n3ccc(=O)[nH]c3=O)[C@H](O)[C@@H]2O)[C@H](O)[C@@H]1O,> 1000
4,"CN(C)C[C@H]1O[C@@H](OC[C@H]2O[C@@H](n3ccc(=O)[nH]c3=O)[C@H](O)C2O)[C@H](O)C1O (single isomer, unassigned)",> 1000
5,"O=CNC[C@H]1O[C@@H](OC[C@H]2O[C@@H](n3ccc(=O)[nH]c3=O)[C@H](O)C2O)[C@H](O)C1O (single isomer, unassigned)",> 1000
6,"C[N+](C)(C)C[C@H]1O[C@@H](OC[C@H]2O[C@@H](n3ccc(=O)[nH]c3=O)[C@H](O)C2O)[C@H](O)C1O (single isomer, unassigned)",> 1000
7,"O=c1ccn([C@@H]2O[C@H](CO[C@@H]3O[C@H](CO)C(O)[C@H]3O)C(O)[C@H]2O)c(=O)[nH]1 (single isomer, unassigned)",> 1000

# Now from value to compound:
row,IC50 [µM],Compound
1,150,"CCNC[C@H]1O[C@@H](OC[C@H]2O[C@@H](n3ccc(=O)[nH]c3=O)[C@H](O)C2O)[C@H](O)C1O (single isomer, unassigned)"
2,30,"N=CNC[C@H]1O[C@@H](OC[C@H]2O[C@@H](n3ccc(=O)[nH]c3=O)[C@H](O)C2O)[C@H](O)C1O (single isomer, unassigned)"
3,180,"CC(C)NC[C@H]1O[C@@H](OC[C@H]2O[C@@H](n3ccc(=O)[nH]c3=O)[C@H](O)C2O)[C@H](O)C1O (single isomer, unassigned)"
4,140,"CCCNC[C@H]1O[C@@H](OC[C@H]2O[C@@H](n3ccc(=O)[nH]c3=O)[C@H](O)C2O)[C@H](O)C1O (single isomer, unassigned)"
5,50,"NC[C@H]1O[C@@H](OC[C@H]2O[C@@H](n3ccc(=O)[nH]c3=O)[C@H](O)C2O)[C@H](O)C1O (single isomer, unassigned)"
6,45,"CNC[C@H]1O[C@@H](OC[C@H]2O[C@@H](n3ccc(=O)[nH]c3=O)[C@H](O)C2O)[C@H](O)C1O (single isomer, unassigned)"
7,130,"CCCCCCNC[C@H]1O[C@@H](OC[C@H]2O[C@@H](n3ccc(=O)[nH]c3=O)[C@H](O)C2O)[C@H](O)C1O (single isomer, unassigned)"
